Assay results as given in the NIST ThermoML archive (doi:10.1021/je049823k).
± gives the expanded uncertainty stated by the source.

Conditions: Liquid, Transpiration method

OCc1ccccc1 [benzenemethanol]
vapor or sublimation pressure (282.9 K): 0.00306 ± 0.00022 kPa
vapor or sublimation pressure (285.9 K): 0.00407 ± 0.00029 kPa
vapor or sublimation pressure (288.9 K): 0.00532 ± 0.00038 kPa
vapor or sublimation pressure (292.1 K): 0.00738 ± 0.00052 kPa
vapor or sublimation pressure (295.3 K): 0.00983 ± 0.00069 kPa
vapor or sublimation pressure (298.2 K): 0.01251 ± 0.00088 kPa
vapor or sublimation pressure (301.2 K): 0.01645 ± 0.0012 kPa
vapor or sublimation pressure (302.8 K): 0.01923 ± 0.0014 kPa
vapor or sublimation pressure (305.8 K): 0.02541 ± 0.0018 kPa
vapor or sublimation pressure (308.8 K): 0.03192 ± 0.0022 kPa
vapor or sublimation pressure (311.7 K): 0.03999 ± 0.0028 kPa
vapor or sublimation pressure (314.9 K): 0.05172 ± 0.0036 kPa
vapor or sublimation pressure (318.1 K): 0.06709 ± 0.0047 kPa
vapor or sublimation pressure (321.1 K): 0.08348 ± 0.0059 kPa

CC(C)(C)OCc1ccccc1 [ether, benzyl tert-butyl]
vapor or sublimation pressure (277.8 K): 0.00512 ± 0.00036 kPa
vapor or sublimation pressure (278.1 K): 0.00528 ± 0.00037 kPa
vapor or sublimation pressure (279.1 K): 0.00577 ± 0.00041 kPa
vapor or sublimation pressure (281.3 K): 0.00698 ± 0.00049 kPa
vapor or sublimation pressure (282.9 K): 0.00797 ± 0.00056 kPa
vapor or sublimation pressure (284.3 K): 0.00893 ± 0.00063 kPa
vapor or sublimation pressure (286.2 K): 0.01095 ± 0.00077 kPa
vapor or sublimation pressure (287.3 K): 0.01177 ± 0.00082 kPa
vapor or sublimation pressure (287.8 K): 0.01209 ± 0.00085 kPa
vapor or sublimation pressure (288.2 K): 0.0131 ± 0.00095 kPa
vapor or sublimation pressure (290 K): 0.01485 ± 0.001 kPa
vapor or sublimation pressure (292.2 K): 0.0182 ± 0.0013 kPa
vapor or sublimation pressure (293 K): 0.01888 ± 0.0013 kPa
vapor or sublimation pressure (293.2 K): 0.01908 ± 0.0013 kPa
vapor or sublimation pressure (295.2 K): 0.02312 ± 0.0016 kPa
vapor or sublimation pressure (296.2 K): 0.02445 ± 0.0017 kPa
vapor or sublimation pressure (297.2 K): 0.02652 ± 0.0019 kPa
vapor or sublimation pressure (298 K): 0.02843 ± 0.002 kPa
vapor or sublimation pressure (298.2 K): 0.02924 ± 0.0021 kPa
vapor or sublimation pressure (299.2 K): 0.03085 ± 0.0022 kPa
vapor or sublimation pressure (300.3 K): 0.03419 ± 0.0024 kPa
vapor or sublimation pressure (302.2 K): 0.03875 ± 0.0027 kPa
vapor or sublimation pressure (303.1 K): 0.04177 ± 0.0032 kPa
vapor or sublimation pressure (303.2 K): 0.04305 ± 0.0033 kPa
vapor or sublimation pressure (308 K): 0.05754 ± 0.004 kPa
